Active and inactive are the calls of the source.
Legend:
NADPH oxidase 1 [1] = target: T1, NADPH oxidase 1 (Homo sapiens, UniProt Q9Y5S8); type: functional, cell-based
T1 sequence (Q9Y5S8 whole entry): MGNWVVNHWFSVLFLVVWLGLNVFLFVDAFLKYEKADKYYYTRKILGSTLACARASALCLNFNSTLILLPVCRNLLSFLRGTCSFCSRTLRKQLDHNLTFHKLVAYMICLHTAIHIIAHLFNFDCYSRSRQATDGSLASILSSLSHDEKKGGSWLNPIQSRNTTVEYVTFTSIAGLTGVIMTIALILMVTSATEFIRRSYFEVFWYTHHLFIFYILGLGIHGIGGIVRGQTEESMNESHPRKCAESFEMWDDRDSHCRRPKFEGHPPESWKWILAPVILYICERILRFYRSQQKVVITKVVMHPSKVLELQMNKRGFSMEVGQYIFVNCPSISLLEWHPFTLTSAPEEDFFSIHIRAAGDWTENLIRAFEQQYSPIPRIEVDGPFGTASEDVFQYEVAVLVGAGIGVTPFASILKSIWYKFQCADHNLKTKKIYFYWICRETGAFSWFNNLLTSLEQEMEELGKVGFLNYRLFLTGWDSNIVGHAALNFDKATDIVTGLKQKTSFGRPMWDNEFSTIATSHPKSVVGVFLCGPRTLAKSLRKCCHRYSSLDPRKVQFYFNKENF

NADPH oxidase 1 [2] = target: T1, NADPH oxidase 1; assay: Luminescence-based cell-based dose response assay to identify inhibitors of NADPH oxidase 1 (NOX1).; type: functional
[3] = target: T2, Rac GTPase-activating protein 1 (Homo sapiens, UniProt Q9H0H5); assay: MgcRacGAP GTPase-activating activity inhibitors, confirmation, biochemical, ADP Hunter fluorescence, primary and confirmatory (AID 624330); type: functional
T2 sequence (Q9H0H5 whole entry): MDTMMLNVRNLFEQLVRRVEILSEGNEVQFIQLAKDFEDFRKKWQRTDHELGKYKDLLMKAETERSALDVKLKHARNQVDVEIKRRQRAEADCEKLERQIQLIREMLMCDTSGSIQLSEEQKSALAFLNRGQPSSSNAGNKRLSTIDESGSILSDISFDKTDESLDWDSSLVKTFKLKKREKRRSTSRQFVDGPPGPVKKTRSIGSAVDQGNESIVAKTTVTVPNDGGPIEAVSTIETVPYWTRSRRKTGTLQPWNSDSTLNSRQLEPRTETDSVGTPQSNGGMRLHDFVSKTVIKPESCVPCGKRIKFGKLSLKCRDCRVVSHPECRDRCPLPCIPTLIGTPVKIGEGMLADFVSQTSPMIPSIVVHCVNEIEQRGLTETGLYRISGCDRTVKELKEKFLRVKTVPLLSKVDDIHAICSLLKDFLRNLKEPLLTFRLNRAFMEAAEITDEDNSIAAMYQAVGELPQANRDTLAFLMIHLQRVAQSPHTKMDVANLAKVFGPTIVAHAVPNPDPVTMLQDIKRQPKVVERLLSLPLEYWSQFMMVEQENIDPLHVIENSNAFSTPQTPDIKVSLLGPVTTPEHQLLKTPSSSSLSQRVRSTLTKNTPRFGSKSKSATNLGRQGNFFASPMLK

[4] = target: 5-hydroxytryptamine receptor 1E (Homo sapiens, UniProt P28566); assay: Counterscreen assay for S1P3 antagonists: Dose response cell-based high throughput screening assay to identify antagonists of the 5-Hydroxytryptamine Receptor Subtype 1E (5HT1E). [Related pubchem assays: 1429, 485 ]; type: functional
[5] = target: Sphingosine 1-phosphate receptor 3 (Homo sapiens, UniProt Q99500); assay: Dose response cell-based high throughput screening assay for antagonists of the Sphingosine 1-Phosphate Receptor 3 (S1P3). [Related pubchem assays: 1429, 485 ]; type: functional
[6] = A High Throughput Confirmatory Assay used to Identify Novel Compounds that Inhibit Mycobacterium Tuberculosis in the absence of Glycerol.; type: functional
[7] = microbe, parasite or virus in culture; type: functional; conditions: Mycobacterium tuberculosis
[8] = target: Epstein-Barr nuclear antigen 1 (Epstein-Barr virus (strain B95-8) (HHV-4) (Human herpesvirus 4), UniProt P03211); assay: EBNA-1 inhibitors, dose response, biochemical, fluorescence polarization, 1536-well (AID 2381); set-up: species or system human gammaherpesvirus 4;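 also: fluorescence polarization of a Cy5 DNA probe bound by EBNA-1 protein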
[9] = target: Lytic switch protein BZLF1 (Epstein-Barr virus (strain B95-8) (HHV-4) (Human herpesvirus 4), UniProt P03206); assay: EBV ZTA inhibitors, dose response, counter-screen for EBNA-1 inhibitor project, biochemical, fluorescence polarization, Epstein-Barr virus, 1536-well (AID 2377); set-up: species or system human gammaherpesvirus 4;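 also: fluorescence polarization of Cy5-labelled ZRE DNA probe bound by purified Zta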
Genome polyprotein [10] = target: T3, Genome polyprotein (Hepatitis C virus, UniProt Q2Q167); assay: HCV core protein dimerization inhibitors, dose response, biochemical, TR-FRET (AID 2159); set-up: species or system Hepacivirus hominis;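 also: blocks dimerization of HCV core protein measured by TR-FRET between tagged core106 pairs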
[11] = target: Induced myeloid leukemia cell differentiation protein Mcl-1 (Homo sapiens, UniProt Q07820); assay: MCL1-BIM BH3 interaction inhibitors, dose response, biochemical, fluorescence polarization, BIM-BH3 peptide, 1536-well (AID 2217)
Bcl-2-like protein 1 = Bcl-2-like protein 1 (Homo sapiens, UniProt Q07817); assay: BCL-XL inhibitors, dose response, selectivity assay for MCL1 inhibitor project, biochemical, fluorescence polarization, 1536-well (AID 2218)
[12] = target: T4, Small ubiquitin-related modifier 1 (Homo sapiens, UniProt P63165); assay: inhibitors of SUMO1 peptide binding, dose response, biochemical, fluorescence polarization, uHTS hits (AID 624382); type: functional; conditions: read-out: IC50_Mean
Genome polyprotein [13] = target: T3, Genome polyprotein; assay: Late stage assay provider counterscreen results for the probe development effort to identify inhibitors of Hepatitis C Virus (HCV) core protein dimerization: Luminescence-based biochemical AlphaScreen assay to identify inhibitors of HCV core dimerization.; type: functional, Hepacivirus hominis
[14] = target: T4, Small ubiquitin-related modifier 1; assay: inhibitors of SUMO1 partner interactions, dose response, biochemical, FRET (AID 624383); type: functional; conditions: read-out: IC50_Mean
Albumin = Albumin (Bos taurus, UniProt P02769); assay: Counterscreen for inhibitors of T-cell receptor (TCR)-CD3 interaction: Fluorescence-based biochemical high throughput dose response assay to identify inhibitors of T-cell receptor (TCR)-CD3 interaction using a TAMRA-labeled BSA probe.; type: functional
Albumin, sequence (P02769 whole entry): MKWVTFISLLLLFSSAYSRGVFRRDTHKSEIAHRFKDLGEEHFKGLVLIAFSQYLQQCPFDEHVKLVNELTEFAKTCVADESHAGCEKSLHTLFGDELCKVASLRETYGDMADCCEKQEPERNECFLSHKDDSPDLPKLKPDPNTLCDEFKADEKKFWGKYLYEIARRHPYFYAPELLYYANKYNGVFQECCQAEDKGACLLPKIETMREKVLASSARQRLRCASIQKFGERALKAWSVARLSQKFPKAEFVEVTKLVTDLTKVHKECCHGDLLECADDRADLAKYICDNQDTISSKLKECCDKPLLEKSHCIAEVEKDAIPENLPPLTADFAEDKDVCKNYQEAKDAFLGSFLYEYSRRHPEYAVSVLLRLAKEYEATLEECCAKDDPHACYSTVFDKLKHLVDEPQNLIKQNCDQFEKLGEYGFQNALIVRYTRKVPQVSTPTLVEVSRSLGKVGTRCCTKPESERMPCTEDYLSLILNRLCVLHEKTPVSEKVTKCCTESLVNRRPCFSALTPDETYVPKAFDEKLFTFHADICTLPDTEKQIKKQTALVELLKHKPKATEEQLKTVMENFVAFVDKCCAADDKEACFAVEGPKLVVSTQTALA

T4 sequence (P63165 whole entry): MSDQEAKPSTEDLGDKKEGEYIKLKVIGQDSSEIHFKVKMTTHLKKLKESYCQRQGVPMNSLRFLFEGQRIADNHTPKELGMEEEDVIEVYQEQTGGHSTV
T3 sequence (Q2Q167 whole entry): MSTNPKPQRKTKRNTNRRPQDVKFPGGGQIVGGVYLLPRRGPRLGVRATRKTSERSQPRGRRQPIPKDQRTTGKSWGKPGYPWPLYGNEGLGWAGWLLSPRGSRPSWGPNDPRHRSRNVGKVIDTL
Sphingosine 1-phosphate receptor 3, sequence (Q99500 whole entry): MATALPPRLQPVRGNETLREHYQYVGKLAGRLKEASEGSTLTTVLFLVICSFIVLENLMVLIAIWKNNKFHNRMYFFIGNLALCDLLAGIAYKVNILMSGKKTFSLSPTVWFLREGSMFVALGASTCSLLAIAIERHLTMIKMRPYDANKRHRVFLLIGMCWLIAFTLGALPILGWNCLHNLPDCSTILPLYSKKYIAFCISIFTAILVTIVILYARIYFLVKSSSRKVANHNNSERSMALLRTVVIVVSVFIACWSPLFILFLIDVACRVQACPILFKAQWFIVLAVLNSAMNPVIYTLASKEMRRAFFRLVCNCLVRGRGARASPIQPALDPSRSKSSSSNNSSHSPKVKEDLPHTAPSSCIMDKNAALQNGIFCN
Lytic switch protein BZLF1, sequence (P03206 whole entry): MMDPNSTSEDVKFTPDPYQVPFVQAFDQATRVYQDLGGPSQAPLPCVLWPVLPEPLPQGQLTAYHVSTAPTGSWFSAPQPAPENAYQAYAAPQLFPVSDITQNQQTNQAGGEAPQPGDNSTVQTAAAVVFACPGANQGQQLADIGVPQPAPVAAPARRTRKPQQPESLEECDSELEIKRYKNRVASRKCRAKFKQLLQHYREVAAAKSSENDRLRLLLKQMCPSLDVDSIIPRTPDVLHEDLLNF
Induced myeloid leukemia cell differentiation protein Mcl-1, sequence (Q07820 whole entry): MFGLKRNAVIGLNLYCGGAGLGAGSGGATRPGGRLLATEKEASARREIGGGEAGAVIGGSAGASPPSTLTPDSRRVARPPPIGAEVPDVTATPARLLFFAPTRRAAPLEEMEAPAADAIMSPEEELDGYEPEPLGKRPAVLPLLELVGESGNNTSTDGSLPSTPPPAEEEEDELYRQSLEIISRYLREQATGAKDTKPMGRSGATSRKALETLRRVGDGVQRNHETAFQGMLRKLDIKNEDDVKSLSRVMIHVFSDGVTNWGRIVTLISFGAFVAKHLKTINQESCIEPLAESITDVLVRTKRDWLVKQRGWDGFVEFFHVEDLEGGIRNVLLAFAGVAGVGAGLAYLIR
Epstein-Barr nuclear antigen 1, sequence (P03211 whole entry): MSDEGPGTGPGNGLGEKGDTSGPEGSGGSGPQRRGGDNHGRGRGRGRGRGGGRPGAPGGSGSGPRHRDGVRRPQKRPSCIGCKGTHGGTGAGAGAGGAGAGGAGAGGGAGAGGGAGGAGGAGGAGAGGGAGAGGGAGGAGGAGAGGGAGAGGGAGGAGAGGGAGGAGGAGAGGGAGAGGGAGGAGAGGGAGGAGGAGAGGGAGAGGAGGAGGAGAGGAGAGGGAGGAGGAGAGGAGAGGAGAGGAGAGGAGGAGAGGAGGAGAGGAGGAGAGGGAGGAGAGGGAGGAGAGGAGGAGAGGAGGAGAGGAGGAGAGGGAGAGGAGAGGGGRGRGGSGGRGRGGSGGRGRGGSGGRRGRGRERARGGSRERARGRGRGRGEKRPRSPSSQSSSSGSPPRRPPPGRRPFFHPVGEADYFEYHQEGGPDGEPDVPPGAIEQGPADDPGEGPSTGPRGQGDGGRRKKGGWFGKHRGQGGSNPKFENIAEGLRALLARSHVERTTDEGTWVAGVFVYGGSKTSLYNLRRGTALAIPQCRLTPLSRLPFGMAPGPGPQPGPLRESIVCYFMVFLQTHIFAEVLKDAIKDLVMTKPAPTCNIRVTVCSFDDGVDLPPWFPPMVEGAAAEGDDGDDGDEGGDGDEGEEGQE
Bcl-2-like protein 1, sequence (Q07817 whole entry): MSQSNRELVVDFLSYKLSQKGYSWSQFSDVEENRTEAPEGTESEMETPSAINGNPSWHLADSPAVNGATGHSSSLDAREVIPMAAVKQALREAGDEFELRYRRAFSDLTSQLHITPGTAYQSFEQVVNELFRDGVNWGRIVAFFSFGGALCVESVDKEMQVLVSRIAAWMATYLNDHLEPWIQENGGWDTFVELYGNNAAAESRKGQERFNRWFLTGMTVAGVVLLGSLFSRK
5-hydroxytryptamine receptor 1E, sequence (P28566 whole entry): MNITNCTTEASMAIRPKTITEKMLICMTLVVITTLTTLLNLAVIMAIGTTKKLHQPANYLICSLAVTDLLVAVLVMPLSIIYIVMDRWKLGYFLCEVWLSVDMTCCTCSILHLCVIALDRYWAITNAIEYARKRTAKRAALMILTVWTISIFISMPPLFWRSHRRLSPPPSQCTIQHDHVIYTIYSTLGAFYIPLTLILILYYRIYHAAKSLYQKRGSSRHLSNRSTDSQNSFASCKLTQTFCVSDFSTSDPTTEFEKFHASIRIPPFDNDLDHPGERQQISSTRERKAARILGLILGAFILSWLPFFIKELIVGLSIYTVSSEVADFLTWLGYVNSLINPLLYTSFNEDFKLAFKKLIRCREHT

c1ccc2c(c1)Nc1ccccc1S2 [PHENOTHIAZINE]
IC50 (NADPH oxidase 1 [1]): 0.369 µM (active) | IC50 (NADPH oxidase 1 [2]): 0.349 µM (active) | IC50 [3]: 18.5 µM (active)

O=C(Nc1ccccc1)C(c1ccccc1)C1CCCC1 (stereo unspecified)
IC50 [4]: 12.1 µM (not active) | IC50 [5]: 6.6 µM (active)

COc1ccccc1NC(=O)Nc1nc(CC(=O)N2CCN(c3ccccc3F)CC2)cs1
IC50 [6]: > 100 µM (active) | CC50 [7]: > 40 µM (active)

CC1=CC2=NC(=O)/C(=C\c3cn(C)c4ccccc34)C(=N)N2O1
IC50 [8]: 8.61 µM (active) | IC50 [9]: > 111 µM (not active)

CCN(CC(=O)Nc1c(F)cccc1F)C(=O)/C=C/c1ccc2ccccc2n1
IC50 (Genome polyprotein [10]): 16.7 µM (not active) | IC50 [11]: 3.46 µM (active) | IC50 (Bcl-2-like protein 1): 25.3 µM (not active) | IC50 [12]: > 66.6 µM (inactive) | IC50 (Genome polyprotein [13]): 29.8 µM (inactive) | IC50 [14]: 2.3 µM (active) | IC50 (Albumin): > 94.1 µM (inactive)

Reference: ChEMBL document CHEMBL1201862, “PubChem BioAssay data set” (2004)
